From patent publication US10413583B2, “Synthetic substrates for enzymes that catalyze reactions of modified cysteines and related methods” (The University of Chicago, priority 2016, dated 2019)

Experiments:
[1] = system: HeLa cells; assay: Epifluorescent imaging of DPP-5 with PalmB in HeLa cells; assay type: cell-based, human
Method: 250,000 HEK293T cells/well, 120,000 HeLa cells/well, or 100,000 HepG2 cells/well were plated in 700 μL DMEM glutamax (10% FBS+1% P/S) into 4-well chambered imaging dish (D35C4-20-1.5-N, Cellvis, Mountain View, Calif., United States of America), which were precoated with 5 μg Poly-D-lysine (30-70 KDa, Alfa Aesar, Haverhill, Mass., United States of America) for 2 h. After 20-24 h, the media was replaced by 1 μM Hoechst 33342 and DMSO/5 μM PalmB in 400 μL DMEM glutamax. After 30 min of incubation at 37° C., the cells were washed with 400 μL of Live Cell Imaging Solution and replaced by 1 μM DPP-5 with DMSO or 5 μM of PalmB in Live Cell Imaging Solution. […] For data analysis, the average fluorescence intensity per image in each experimental condition was obtained by selecting ROI in Brightfield and applying that to the corresponding DPP-5 image, average background fluorescence intensity was subtracted and data was normalized to the average fluorescence intensity of the DMSO control. […]

[2] = system: HEPG2 cells; assay: Fluorescence imaging of RDP-1 with HEPG2 cells (PalmB, palmitate); assay type: cell-based, human; conditions: 40 μM PalmB 30 min, 1 μM RDP-1
Method: HEPG2 were plated with […] of DMEM (Gibco, Gaithersburg, Md., United States of America; High Glucose, Glutamax, 10% FBS) a four well chambered imaging dish (D35C4-20-1.5-N, Cellvis, Mountain View, Calif., United States of America) which were precoated with 4 μg Poly-D-lysine (30-70 KDa, Alfa Aesar, Haverhill, Mass., United States of America) for 2 h at room temperature or overnight at 4° C. and grown to ca. 80% confluence prior to imaging. 30 min before the addition of the RDP, the cell culture media was removed and cells were washed with 500 μL of serum-free DMEM (Gibco, Gaithersburg, Md., United States of America; High Glucose, Glutamax, no FBS). The media was then replaced with 500 μL of serum-free DMEM containing 100 nM Mitotracker Deep Red (Thermo Fisher Scientific, Waltham, Mass., United States of America) to assist in focusing and processing) and either 0.1% DMSO carrier as a control or Palm B in DMSO and incubated for 30 min at 37° C. and 5% CO2. The media was removed, the cells were washed with 500 μL of Live Cell Imaging Solution (Thermo Fisher Scientific, Waltham, Mass., United States of America), and 500 μL of 1 μM RDP-1 along with the Palm B or DMSO as control in Live Cell Imaging Solution was added to each well. […]

[3] = molecular target: T1, APT1 (Homo sapiens, UniProt O75608); assay: Enzyme kinetics analysis of DPP-5 with APT1; assay type: biochemical; conditions: APT1 50 nM
T1 construct: His-tag; made in house; host or cells: E. coli ROSETTA DE3
Method: 150 μL of 1 M DTT in HEPES buffer was added to different concentrations of 150 μL DPP-5 and then the stable fluorescence intensities of totally deacylated product were measured by the methods described above. Fluorescence intensity of per molar deacylated-product was then calculated by linear least-squares fitting of plots of fluorescence vs. concentration. For Michaelis-Menten constant, in vitro kinetics curves were obtained for different final concentrations of DPP-5 in HEPES with 50 nM APT1 or APT2. The fluorescence intensities measured were then normalized to the concentrations of product by fluorescence-intensity-permolar-product. A Lineweaver-Burk plot was used to calculate the Michaelis constant, KM, and the maximum velocity, Vmax, which is proportional to kcat by concentration of APT1 or APT2. All fits have R^2 values of >0.99.

T1 sequence (O75608 whole entry): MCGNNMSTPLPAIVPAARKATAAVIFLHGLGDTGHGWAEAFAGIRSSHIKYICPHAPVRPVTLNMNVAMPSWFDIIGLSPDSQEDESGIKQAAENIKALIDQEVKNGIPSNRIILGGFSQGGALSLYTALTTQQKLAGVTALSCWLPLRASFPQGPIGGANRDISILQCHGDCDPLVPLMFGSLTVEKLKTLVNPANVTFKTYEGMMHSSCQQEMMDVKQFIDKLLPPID

In the case of `CCCCCCCCCC[C@@H]1C(=O)O[C@H]1CCc1ccc(OC)c(OC)c1` [PalmB, palmostatin B], the “turn-on response of DPP-5 blocked” value ([1]; 5 μM PalmB pretreatment, 1 μM DPP-5) is reported as “more than 95%” and the “decrease in deacylation of RDP-1” value [2] is reported as “about 60%”.

`CCCCCCCCCCCCCCCC(=O)SC[C@@H](C(=O)NC)N(C)C(=O)Oc1ccc2c(c1)Oc1cc(N3CCN(C(=O)CCC(=O)O)CC3)ccc1C21OC(=O)c2ccccc21` (some centres unmarked) [DPP-5] was tested, and the Kcat [3] was 0.044 s⁻¹, the Km ([3]; Lineweaver-Burk) was 1.6 µM and the “probe fluorescent signal in cells” value ([1]; 1 μM probe for 20 minutes) was “robust intracellular fluorescent signal”.
